In PubChem BioAssay AID1963432 (Molecular Pharmacology Branch, DTP, NCI, 2024):

System: SYO-1 complex spheroid growth, percent test/control
Test: Anticancer human tumor SYO-1 cell line growth inhibition [Asc];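 also: compound exposure lasted 7 days after spheroids grew 3 days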;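 as to viability, T/C: 100% = DMSO vehicle control viability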
Settings: for IC50: curve of first compound; for viability, T/C: stronger effect = lower value
Summary of the method: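 Spheroid model: tumor line + HUVEC + hMSC. Single agents and combinations; top conc. at/near clinical Cmax (10 microM if undetermined), half-log dilutions. DMSO stocks at 800-fold test concentration.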

[1] = second compound 0.01 µM, first compound 0.00316 µM
[2] = second compound 0.01 µM, first compound 0.01 µM
[3] = second compound 0.01 µM, first compound 0.0316 µM
[4] = second compound 0.01 µM, first compound 0.1 µM
[5] = second compound 0.01 µM, first compound 0.316 µM
[6] = second compound 0.01 µM, first compound 1 µM
[7] = second compound 0.0316 µM, first compound 0.00316 µM
[8] = second compound 0.0316 µM, first compound 0.01 µM
[9] = second compound 0.0316 µM, first compound 0.0316 µM
[10] = second compound 0.0316 µM, first compound 0.1 µM
[11] = second compound 0.0316 µM, first compound 0.316 µM
[12] = second compound 0.0316 µM, first compound 1 µM
[13] = second compound 0.1 µM, first compound 0.00316 µM
[14] = second compound 0.1 µM, first compound 0.01 µM
[15] = second compound 0.1 µM, first compound 0.0316 µM
[16] = second compound 0.1 µM, first compound 0.1 µM
[17] = second compound 0.1 µM, first compound 0.316 µM
[18] = second compound 0.1 µM, first compound 1 µM
[19] = second compound 0.316 µM, first compound 0.00316 µM
[20] = second compound 0.316 µM, first compound 0.01 µM
[21] = second compound 0.316 µM, first compound 0.0316 µM
[22] = second compound 0.316 µM, first compound 0.1 µM
[23] = second compound 0.316 µM, first compound 0.316 µM
[24] = second compound 0.316 µM, first compound 1 µM
[25] = second compound 1 µM, first compound 0.00316 µM
[26] = second compound 1 µM, first compound 0.01 µM
[27] = second compound 1 µM, first compound 0.0316 µM
[28] = second compound 1 µM, first compound 0.1 µM
[29] = second compound 1 µM, first compound 0.316 µM
[30] = second compound 1 µM, first compound 1 µM

SMILES	IC50 (second compound 0.01 µM) [nM]	IC50 (second compound 0.0316 µM) [nM]	IC50 (second compound 0.1 µM) [nM]	IC50 (second compound 0.316 µM) [nM]	IC50 (second compound 1 µM) [nM]	viability, T/C [1] [%]	viability, T/C [2] [%]	viability, T/C [3] [%]	viability, T/C [4] [%]	viability, T/C [5] [%]	viability, T/C [6] [%]	viability, T/C [7] [%]	viability, T/C [9] [%]	viability, T/C [10] [%]	viability, T/C [15] [%]	viability, T/C [16] [%]	viability, T/C [21] [%]	viability, T/C [22] [%]	viability, T/C [27] [%]	viability, T/C [28] [%]	other results
CCN1CCN(Cc2ccc(Nc3ncc(F)c(-c4cc(F)c5nc(C)n(C(C)C)c5c4)n3)nc2)CC1 + CNC(C)C(=O)NC1CN(S(=O)(=O)c2cccc(S(=O)(=O)N3CCC4CCC(C(=O)NC(c5ccccc5)c5ccccc5)N4C(=O)C(NC(=O)C(C)NC)C3)c2)CCC2CCC(C(=O)NC(c3ccccc3)c3ccccc3)N2C1=O	> 1000	> 1000	> 1000	> 1000	> 1000	110	114	108	111	109	116	101	105	110	96.7	106	108	100	103	110	viability, T/C [8]: 101%; viability, T/C [11]: 112%; viability, T/C [12]: 114%; viability, T/C [13]: 102%; viability, T/C [14]: 101%; viability, T/C [17]: 105%; viability, T/C [18]: 108%; viability, T/C [19]: 97.6%; viability, T/C [20]: 103%; viability, T/C [23]: 109%; viability, T/C [24]: 115%; viability, T/C [25]: 101%; viability, T/C [26]: 101%; viability, T/C [29]: 101%; viability, T/C [30]: 101%
Cn1ncnc1[C@H]1c2n[nH]c(=O)c3cc(F)cc(c23)N[C@@H]1c1ccc(F)cc1 + CNC(C)C(=O)NC1CN(S(=O)(=O)c2cccc(S(=O)(=O)N3CCC4CCC(C(=O)NC(c5ccccc5)c5ccccc5)N4C(=O)C(NC(=O)C(C)NC)C3)c2)CCC2CCC(C(=O)NC(c3ccccc3)c3ccccc3)N2C1=O	> 100	> 100	> 100	> 100	> 100	103	91.8	76.8	82.9			103	75.8	86.3	75.4	86.3	66.8	86.4	78.9	85.7	viability, T/C (second compound 0.01 µM, first compound 0.000316 µM): 107%; viability, T/C (second compound 0.01 µM, first compound 0.001 µM): 106%; viability, T/C (second compound 0.0316 µM, first compound 0.000316 µM): 101%; viability, T/C (second compound 0.0316 µM, first compound 0.001 µM): 102%; viability, T/C [8]: 98.3%; viability, T/C (second compound 0.1 µM, first compound 0.000316 µM): 108%; viability, T/C (second compound 0.1 µM, first compound 0.001 µM): 93.6%; viability, T/C [13]: 96.8%; viability, T/C [14]: 93.4%; viability, T/C (second compound 0.316 µM, first compound 0.000316 µM): 112%; viability, T/C (second compound 0.316 µM, first compound 0.001 µM): 103%; viability, T/C [19]: 95%; viability, T/C [20]: 92.1%; viability, T/C (second compound 1 µM, first compound 0.000316 µM): 98.2%; viability, T/C (second compound 1 µM, first compound 0.001 µM): 107%; viability, T/C [25]: 96.3%; viability, T/C [26]: 93.6%
O=C(c1cc(Cc2n[nH]c(=O)c3ccccc23)ccc1F)N1CCN(C(=O)C2CC2)CC1 + CNC(C)C(=O)NC1CN(S(=O)(=O)c2cccc(S(=O)(=O)N3CCC4CCC(C(=O)NC(c5ccccc5)c5ccccc5)N4C(=O)C(NC(=O)C(C)NC)C3)c2)CCC2CCC(C(=O)NC(c3ccccc3)c3ccccc3)N2C1=O	4730	4470	4370	4260	3920			99.8	95.9	105	94.6		104	96.8	105	95.4	98.6	94.7	97.4	102	viability, T/C (second compound 0.01 µM, first compound 3.16 µM): 71.9%; viability, T/C (second compound 0.01 µM, first compound 10 µM): 9.58%; viability, T/C [11]: 94.2%; viability, T/C [12]: 93.6%; viability, T/C (second compound 0.0316 µM, first compound 3.16 µM): 67.5%; viability, T/C (second compound 0.0316 µM, first compound 10 µM): 8.65%; viability, T/C [17]: 103%; viability, T/C [18]: 93.5%; viability, T/C (second compound 0.1 µM, first compound 3.16 µM): 66.3%; viability, T/C (second compound 0.1 µM, first compound 10 µM): 8.36%; viability, T/C [23]: 99.8%; viability, T/C [24]: 96.4%; viability, T/C (second compound 0.316 µM, first compound 3.16 µM): 65.8%; viability, T/C (second compound 0.316 µM, first compound 10 µM): 5.64%; viability, T/C [29]: 90.3%; viability, T/C [30]: 91.7%; viability, T/C (second compound 1 µM, first compound 3.16 µM): 59.9%; viability, T/C (second compound 1 µM, first compound 10 µM): 5.84%
O=C(c1ccc(F)c(F)c1Nc1ccc(I)cc1F)N1CC(O)([C@@H]2CCCCN2)C1 + CNC(C)C(=O)NC1CN(S(=O)(=O)c2cccc(S(=O)(=O)N3CCC4CCC(C(=O)NC(c5ccccc5)c5ccccc5)N4C(=O)C(NC(=O)C(C)NC)C3)c2)CCC2CCC(C(=O)NC(c3ccccc3)c3ccccc3)N2C1=O	> 1000	> 1000	> 1000	> 1000	> 1000	97.8	105	102	98.1	97.6	103	106	95.2	95.2	105	92.1	99.6	96	113	98.4	viability, T/C [8]: 106%; viability, T/C [11]: 95%; viability, T/C [12]: 94.5%; viability, T/C [13]: 99.5%; viability, T/C [14]: 106%; viability, T/C [17]: 96.9%; viability, T/C [18]: 93.6%; viability, T/C [19]: 113%; viability, T/C [20]: 104%; viability, T/C [23]: 99.8%; viability, T/C [24]: 97.8%; viability, T/C [25]: 97.7%; viability, T/C [26]: 103%; viability, T/C [29]: 92.4%; viability, T/C [30]: 91.2%
